Assay results published in US20250320184A1 (SIRONAX LTD., priority 2022, published 2025).

Biological target: T1, SARM1 (50-724) (Homo sapiens, UniProt Q6SZW1)
T1 sequence (Q6SZW1 50-724): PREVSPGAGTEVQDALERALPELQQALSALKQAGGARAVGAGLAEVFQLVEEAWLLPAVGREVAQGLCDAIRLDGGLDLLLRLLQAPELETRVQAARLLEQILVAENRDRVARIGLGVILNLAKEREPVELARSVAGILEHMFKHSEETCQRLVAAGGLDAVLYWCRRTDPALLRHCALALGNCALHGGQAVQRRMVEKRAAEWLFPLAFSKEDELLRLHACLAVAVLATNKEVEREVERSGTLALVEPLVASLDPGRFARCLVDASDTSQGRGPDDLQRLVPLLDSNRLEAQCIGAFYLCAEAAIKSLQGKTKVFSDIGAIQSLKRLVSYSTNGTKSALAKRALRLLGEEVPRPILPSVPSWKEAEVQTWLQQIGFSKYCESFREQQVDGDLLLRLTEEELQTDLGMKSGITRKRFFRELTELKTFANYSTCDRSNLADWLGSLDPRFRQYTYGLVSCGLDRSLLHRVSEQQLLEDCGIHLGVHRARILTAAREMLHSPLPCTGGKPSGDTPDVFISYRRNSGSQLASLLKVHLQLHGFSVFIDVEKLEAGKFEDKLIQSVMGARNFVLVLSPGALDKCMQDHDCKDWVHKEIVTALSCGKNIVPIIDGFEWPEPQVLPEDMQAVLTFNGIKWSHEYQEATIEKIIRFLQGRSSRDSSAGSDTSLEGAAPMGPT
Experiment: biochemical
Method: An enzymatic assay was performed in a 384-well plate using Dulbecco's phosphate-buffered saline (PBS) as the reaction buffer. […] The reaction was initiated by adding a mixture of 200 μM nicotinamide mononucleotide (NMN) as activator and 100 μM NAD^+ as substrate. After 1 h of incubation at room temperature, the reaction was terminated with 10 times volume of 70% acetonitrile, then centrifuged at 3800 rpm for 10 min.

| Structure (SMILES) | IC50 [nM] |
| --- | --- |
| Cc1c(Cl)cccc1S(=O)(=O)Nc1ccc2c(c1)C(=O)NCCC2 [Compound 39, 3-chloro-2-methyl-N-(1-oxo-2,3,4,5-tetrahydro-1H-benzo[c]azepin-8-yl)benzenesulfonamide] | < 100 |
| Cc1c(F)cccc1S(=O)(=O)Nc1ccc2cc[nH]c(=O)c2c1 [Compound 15, 3-fluoro-2-methyl-N-(1-oxo-1,2-dihydroisoquinolin-7-yl)benzenesulfonamide] | < 100 |
| CC1(C)c2ccc(NS(=O)(=O)c3cccc(Cl)c3Cl)cc2C(=O)N1CC(N)=O [Compound 289, 2-(5-((2,3-dichlorophenyl)sulfonamido)-1,1-dimethyl-3-oxoisoindolin-2-yl)acetamide] | < 100 |
| O=S(=O)(Nc1ccc2ccncc2c1)c1cccc(Cl)c1Cl [Compound 43, 2,3-dichloro-N-(isoquinolin-7-yl)benzenesulfonamide] | 100 to 500 |
| CC1C(=O)Nc2cc(NS(=O)(=O)c3cccc(Cl)c3Cl)ccc21 (centres unmarked) [Compound 235] | < 100 |
| O=S(=O)(Nc1ccc2cccnc2c1)c1cccc(Cl)c1Cl [Compound 42, 2,3-dichloro-N-(quinolin-7-yl)benzenesulfonamide] | < 100 |
| Cc1n[nH]c2cc(NS(=O)(=O)c3c(Cl)ccc(Cl)c3Cl)ccc12 [Compound 81, 2,3,6-trichloro-N-(3-methyl-1H-indazol-6-yl)benzenesulfonamide] | < 100 |
| CC(Nc1ccc2c(c1)NC(=O)C2(C)C)c1c(Cl)ccc(F)c1Cl (racemic) [Compound 215, 6-[1-(2,6-dichloro-3-fluoro-phenyl)ethylamino]-3,3-dimethyl-indolin-2-one] | < 100 |
| CC(Nc1ccc2c(c1)C(=O)NC2(C)C)c1nc(Cl)c(Cl)s1 (racemic) [Compound 278, 6-[1-(4,5-dichlorothiazol-2-yl)ethylamino]-3,3-dimethyl-isoindolin-1-one] | < 100 |
| CC(Nc1ccc2ccn(CC3CC3)c(=O)c2c1)c1cccc(Cl)c1Cl (racemic) [Compound 186, 2-(cyclopropylmethyl)-7-((1-(2,3-dichlorophenyl)ethyl)amino)isoquinolin-1(2H)-one] | 100 to 500 |
| CC(Nc1ccc2nc[nH]c(=O)c2c1)c1nc(Cl)c(Cl)s1 (centres unmarked) [Compound 202, 6-((1-(4,5-dichlorothiazol-2-yl)ethyl)amino)quinazolin-4(3H)-one] | < 100 |
| O=c1[nH]ccc2ccc(NS(=O)(=O)c3c(Cl)ccc(Cl)c3Cl)cc12 [Compound 68, 2,3,6-trichloro-N-(1-oxo-1,2-dihydroisoquinolin-7-yl)benzenesulfonamide] | < 100 |
| O=C1NCCc2ccc(NS(=O)(=O)N3CC4CCCC4C3)cc21 (centres unmarked) [Compound 49, N-(1-oxo-3,4-dihydro-2H-isoquinolin-7-yl)-3,3a,4,5,6,6a-hexahydro-1H-cyclopenta[c]pyrrole-2-sulfonamide] | > 1000 |
| Cc1c[nH]c(=O)c2cc(NS(=O)(=O)c3cccc(Cl)c3Cl)ccc12 [Compound 188, 2,3-dichloro-N-(4-methyl-1-oxo-1,2-dihydroisoquinolin-7-yl)benzenesulfonamide] | < 100 |
| CC(C)(O)C(Nc1ccc2cc[nH]c(=O)c2c1)c1cccc(Cl)c1Cl (racemic) [Compound 253, 7-((1-(2,3-dichlorophenyl)-2-hydroxy-2-methylpropyl)amino)isoquinolin-1(2H)-one] | < 100 |
| CC(Nc1cc(F)c2ncn(CCO)c(=O)c2c1)c1nc(Cl)c(Cl)s1 (racemic) [Compound 297, 6-((1-(4,5-dichlorothiazol-2-yl)ethyl)amino)-8-fluoro-3-(2-hydroxyethyl)quinazolin-4(3H)-one] | < 100 |
| Cc1c(F)cccc1S(=O)(=O)Nc1ccc2cnn(C(=O)OC(C)(C)C)c2c1 [Compound 24, tert-butyl 6-((3-fluoro-2-methylphenyl)sulfonamido)-1H-indazole-1-carboxylate] | > 1000 |
| Cc1c(Cl)c(C(C)Nc2ccc3cc[nH]c(=O)c3c2)nn1CC(F)(F)F (racemic) [Compound 257, 7-((1-(4-chloro-5-methyl-1-(2,2,2-trifluoroethyl)-1H-pyrazol-3-yl)ethyl)amino)isoquinolin-1(2H)-one] | < 100 |
| COC(=O)C1Cc2ccc(NS(=O)(=O)c3cccc(Cl)c3Cl)cc2C(=O)N1 (racemic) [Compound 90, methyl 7-((2,3-dichlorophenyl)sulfonamido)-1-oxo-1,2,3,4-tetrahydroisoquinoline-3-carboxylate] | 100 to 500 |
| O=c1[nH]cnc2ccc(NS(=O)(=O)c3c(Cl)ccc(Cl)c3Cl)cc12 [Compound 82, 2,3,6-trichloro-N-(4-oxo-3H-quinazolin-6-yl)benzenesulfonamide] | < 100 |

The remaining lines, values ahead:

| IC50 [nM] | Structure (SMILES) |
| --- | --- |
| 100 to 500 | CC(Nc1ccc2cn[nH]c(=O)c2c1)c1cc(F)cc(Cl)c1Cl (racemic) [Example 200, 7-((1-(2,3-dichloro-5-fluorophenyl)ethyl)amino)phthalazin-1(2H)-one] |
| < 100 | CC(Nc1ccc2c(c1)C(=O)N(CC(N)=O)C2(C)C)c1nc(Cl)c(Cl)s1 (single isomer, unassigned) [Compound 320] |
| 100 to 500 | CC(Nc1ccc2cc[nH]c(=O)c2c1)c1cccc(Cl)c1 (racemic) [Example 108, 7-((1-(3-chlorophenyl)ethyl)amino)isoquinolin-1(2H)-one] |
| 100 to 500 | CC[C@@H](C(N)=O)c1ccc(N[C@@H](C)c2nc(Cl)c(Cl)s2)cc1 (single isomer, unassigned) [Compound 302C] |
| < 100 | CCC(Nc1ccc2cc[nH]c(=O)c2c1)c1cccc(Cl)c1Cl (racemic) [Example 143, 7-((1-(2,3-dichlorophenyl)propyl)amino)isoquinolin-1(2H)-one] |
| 100 to 500 | Cc1c(C#N)sc(C(C)Nc2ccc3c(C)n[nH]c(=O)c3c2)c1Cl (racemic) [Compound 350, 4-chloro-3-methyl-5-(1-((1-methyl-4-oxo-3,4-dihydrophthalazin-6-yl)amino)ethyl)thiophene-2-carbonitrile] |
| > 1000 | O=C1NCCc2ccc(NS(=O)(=O)c3ccc(F)cc3F)cc21 [Example 14A, 2,4-difluoro-N-(1-oxo-1,2,3,4-tetrahydroisoquinolin-7-yl)benzenesulfonamide] |
| < 100 | CC(Nc1cc(F)c2ncn(-c3ccn[nH]3)c(=O)c2c1)c1nc(Cl)c(Cl)s1 (racemic) [Example 356rac, 6-((1-(4,5-dichlorothiazol-2-yl)ethyl)amino)-8-fluoro-3-(1H-pyrazol-5-yl)quinazolin-4(3H)-one] |
| < 100 | CC(Nc1ccc2c(c1)C(=O)NCC2)c1cccc(Cl)c1Cl (single isomer, unassigned) [Example 111] |
| < 100 | Cc1n[nH]c(=O)c2cc(N[C@@H](C)c3nc(Cl)c(Cl)s3)ccc12 (single isomer, unassigned) [Example 239A] |
| < 100 | CC(Nc1ccc2c(C(F)F)n(CC(N)=O)nc2c1)c1nc(Cl)c(Cl)s1 (single isomer, unassigned) [Compound 355A] |
| > 1000 | CC(Nc1ccc2c(c1)C(=O)N(CC(N)=O)C2(C)C)c1nc(Cl)c(Cl)s1 (single isomer, unassigned) [Compound 320A] |
| 100 to 500 | CC1(C)c2ccc(NS(=O)(=O)c3cccc(Cl)c3Cl)cc2C(=O)N1CCO [Compound 303] |
| 100 to 500 | CC(Nc1ccc2cc[nH]c(=O)c2c1)c1sc(Cl)nc1Cl (racemic) [Example 130, 7-((1-(2,4-dichlorothiazol-5-yl)ethyl)amino)isoquinolin-1(2H)-one] |
| > 1000 | O=C1NCCc2ccc(NS(=O)(=O)N3C[C@@H]4CC[C@H]3C4)cc21 (racemic) [Example 167, N-(1-oxo-1,2,3,4-tetrahydroisoquinolin-7-yl)-2-azabicyclo[2.2.1]heptane-2-sulfonamide] |
| > 1000 | Cc1c(F)cccc1S(=O)(=O)Nc1cccc(-c2cnn(C)c2)c1 [Example 161, 3-fluoro-2-methyl-N-(3-(1-methyl-1H-pyrazol-4-yl)phenyl)benzenesulfonamide] |
| 100 to 500 | CC(Nc1ccc2cc[nH]c(=O)c2c1)c1nc(Cl)n(C)c1Cl (racemic) [Compound 308, 7-((1-(2,5-dichloro-1-methyl-1H-imidazol-4-yl)ethyl)amino)isoquinolin-1(2H)-one] |
| 100 to 500 | CCC(Nc1ccc2cc[nH]c(=O)c2c1)c1cccc(Cl)c1 (racemic) [Example 126, 7-((1-(3-chlorophenyl)propyl)amino)isoquinolin-1(2H)-one] |
| < 100 | CC(Nc1ccc2nc[nH]c(=O)c2c1)c1c(Cl)ccc(Cl)c1Cl (racemic) [Example 195, 6-((1-(2,3,6-trichlorophenyl)ethyl)amino)quinazolin-4(3H)-one] |
| < 100 | Cc1n[nH]c(=O)c2cc(NC(C)c3nn(C)c(Cl)c3Cl)cc(F)c12 (racemic) [Compound 316, 7-((1-(4,5-dichloro-1-methyl-1H-pyrazol-3-yl)ethyl)amino)-5-fluoro-4-methylphthalazin-1(2H)-one] |
| < 100 | Cc1c2c(F)cc(NC(C)c3c(F)ccc(Cl)c3Cl)cc2nn1CC(N)=O (racemic) [Compound 364, 2-(6-((1-(2,3-dichloro-6-fluorophenyl)ethyl)amino)-4-fluoro-3-methyl-2H-indazol-2-yl)acetamide] |
